# Patent US20260022142A1, “MACROCYCLIC IMMUNOMODULATORS” (Bristol-Myers Squibb Company, priority 2022, published 2026)
# Numbered stars: 1 amine (or outer) side, 2 acyl side, 3 side chain; on linkers, the order of the positions; unused ones are H or OH. Bridge positions count the residues as written; N and C are the ends. Square brackets hold non-standard residues; d marks the D form. Peptide text beside a SMILES is read from it. * marks the point of attachment. ξ: configuration not given here. Phe(4-CH2CH2COOH) = N[C@@H](Cc1ccc(CCC(=O)O)cc1)C(=O)O; Phe(3-CF3) = N[C@@H](Cc1cccc(C(F)(F)F)c1)C(=O)O; Phe(4-COOH) = N[C@@H](Cc1ccc(C(=O)O)cc1)C(=O)O; Bip = N[C@@H](Cc1ccc(-c2ccccc2)cc1)C(=O)O; NH(CH2)14COOH = O=C(O)CCCCCCCCCCCCCCN*; Phe(3-Me) = Cc1cccc(C[C@H](N)C(=O)O)c1; NH(CH2)12COOH = O=C(O)CCCCCCCCCCCCN*; His(π-Me) = Cn1cncc1C[C@H](N)C(=O)O; Val(3-OH) = CC(C)(O)[C@H](N)C(=O)O; X6 = O=C(Cc1ccc(CN[*:1])cc1)[*:2]; hArg = N=C(N)NCCCC[C@H](N)C(=O)O; 4Pal = N[C@@H](Cc1ccncc1)C(=O)O; Cha = N[C@@H](CC1CCCCC1)C(=O)O; Cit = NC(=O)NCCC[C@H](N)C(=O)O; Thr(3ξ) = CC(O)[C@H](N)C(=O)O; 12Ado = NCCCCCCCCCCCC(=O)O; Carboxymethyl = O=C(O)C*; Orn = NCCC[C@H](N)C(=O)O; Aun = NCCCCCCCCCCC(=O)O; Dab = NCC[C@H](N)C(=O)O; Dap = NC[C@H](N)C(=O)O; AEEA = NCCOCCOCC(=O)O
# Target: T1, PD-1/PD-L1 interaction (PE-labeled human PD-L1-Ig binding to Jurkat cell line over-expressing human PD-1) (Homo sapiens, UniProt Q15116)
# T1 construct: expressed in transfected cells; host or cells: Jurkat
# T1 sequence (Q15116 25-288): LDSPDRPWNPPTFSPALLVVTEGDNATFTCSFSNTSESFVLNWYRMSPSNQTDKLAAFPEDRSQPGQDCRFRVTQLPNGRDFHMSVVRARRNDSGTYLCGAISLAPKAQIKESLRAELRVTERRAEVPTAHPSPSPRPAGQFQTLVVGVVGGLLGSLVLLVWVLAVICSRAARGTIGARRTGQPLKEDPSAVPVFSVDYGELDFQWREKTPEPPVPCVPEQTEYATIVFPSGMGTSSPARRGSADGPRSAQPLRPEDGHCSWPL
# Assay: Jurkat-PD-1 Cell Binding High-Content Screening Assay (CBA)
# Format: cell-based
# Conditions: Jurkat cell line over-expressing human PD-1; PE-labeled PD-L1-Ig 20 nM final; read-out: Jurkat hPD1-PDL1 IC50
# Summary of the method: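 Read-out is high-content imaging of cell-bound phycoerythrin-tagged PD-L1-Ig on fixed, Hoechst-counterstained Jurkat cells that over-express human PD-1. Compound exposure lasts 2 h at 37° C before the labeled ligand (20 nM final) is added for a further hour.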
row,Compound,IC50 [nM]
1,Cc1cccc(C[C@@H]2NC(=O)[C@H](CC(=O)O)NC(=O)[C@H](Cc3ccc(OCC(=O)O)cc3)NC(=O)[C@H](CCN)NC(=O)CSC[C@@H](C(=O)N[C@@H](CCN)C(=O)NCCOCCOCC(=O)NCCOCCOCC(=O)NCCCCCCCCCCCCC(=O)O)NC(=O)[C@H](CCC(=O)O)NC(=O)[C@H](C(C)(C)O)NC(=O)[C@H](CC3CCCCC3)NC(=O)[C@H](CCN)NC(=O)[C@@H](CC(C)C)NC(=O)[C@H](CCCN)NC(=O)[C@H](Cc3ccc(OCC(=O)O)cc3)NC(=O)[C@H](Cc3ccc(-c4ccccc4)cc3)NC(=O)[C@H](Cc3ccc(OCC(=O)O)cc3)NC2=O)c1 [Compound 3758] ({CH2CO}-[Dab]Y(Carboxymethyl)D[Phe(3-Me)]Y(Carboxymethyl)[Bip]Y(Carboxymethyl)[Orn][dL][Dab][Cha][Val(3-OH)]EC[Dab][AEEA][AEEA]-{NH(CH2)12COOH}; thioether N-14),19
2,Cc1cccc(C[C@@H]2NC(=O)[C@H](CC(=O)O)NC(=O)[C@H](Cc3ccc(OCC(=O)O)cc3)NC(=O)[C@H](CN)NC(=O)CSC[C@@H](C(=O)NCc3ccc(CC(=O)NCCCCCCCCCCC(=O)O)cc3)NC(=O)[C@H]([C@@H](C)O)NC(=O)[C@H](C(C)C)NC(=O)[C@H](CC3CCCCC3)NC(=O)[C@H](CCN)NC(=O)[C@@H](CC(C)C)NC(=O)[C@H](CCCN)NC(=O)[C@H](CCCNC(N)=O)NC(=O)[C@H](Cc3ccc(-c4ccccc4)cc3)NC(=O)[C@H](C(C)C)NC2=O)c1 [Compound 2624] ({CH2CO}-[Dap]Y(Carboxymethyl)D[Phe(3-Me)]V[Bip][Cit][Orn][dL][Dab][Cha]VTC[X6][Aun]-OH; thioether N-14),34.5
3,CC(C)C[C@H]1NC(=O)[C@H](CCCN)NC(=O)[C@H](C(C)C)NC(=O)[C@H](Cc2ccc(-c3ccccc3)cc2)NC(=O)[C@H](C(C)C)NC(=O)[C@H](Cc2c[nH]c3ccccc23)NC(=O)[C@H](CC(=O)O)NC(=O)[C@H](Cc2ccc(OCC(=O)O)cc2)NC(=O)[C@H](CCCCNC(=N)N)NC(=O)CSC[C@@H](C(=O)NCC(=O)NCCOCCOCC(=O)N[C@@H](CCCN)C(=O)NCCCCCCCCCCC(=O)O)NC(=O)[C@H](CCCN)NC(=O)[C@H](C(C)C)NC(=O)[C@H](CC2CCCCC2)NC(=O)[C@H](CCN)NC1=O [Compound 3198] ({CH2CO}-[hArg]Y(Carboxymethyl)DWV[Bip]V[Orn][dL][Dab][Cha]V[Orn]CG[AEEA][Orn][Aun]-OH; thioether N-14),4
4,Cc1cccc(C[C@@H]2NC(=O)[C@H](CC(=O)O)NC(=O)[C@H](Cc3ccc(OCC(=O)O)cc3)NC(=O)[C@H](Cc3cncn3C)NC(=O)CSC[C@@H](C(=O)N[C@@H](CCN)C(=O)NCCCCCCCCCCC(=O)O)NC(=O)[C@H](CCCCN)NC(=O)[C@H](C(C)C)NC(=O)[C@H](CC3CCCCC3)NC(=O)[C@H](CCN)NC(=O)[C@@H](CC(C)C)NC(=O)[C@H](CCCN)NC(=O)[C@H](C(C)C)NC(=O)[C@H](Cc3ccc(-c4ccccc4)cc3)NC(=O)[C@H](C(C)C)NC2=O)c1 [Compound 2035] ({CH2CO}-[His(π-Me)]Y(Carboxymethyl)D[Phe(3-Me)]V[Bip]V[Orn][dL][Dab][Cha]VKC[Dab][Aun]-OH; thioether N-14),14.5
5,Cc1cccc(C[C@@H]2NC(=O)[C@H](CC(=O)O)NC(=O)[C@H](Cc3ccc(OCC(=O)O)cc3)NC(=O)[C@H](C(C)O)NC(=O)CSC[C@@H](C(=O)N[C@@H](CC(N)=O)C(=O)NCCCCCCCCCCC(=O)O)NC(=O)[C@H](C(C)O)NC(=O)[C@H](C(C)C)NC(=O)[C@H](CC3CCCCC3)NC(=O)[C@H](CCN)NC(=O)[C@@H](CC(C)C)NC(=O)[C@H](CCCN)NC(=O)[C@H](Cc3ccc(O)cc3)NC(=O)[C@H](Cc3ccc(-c4ccccc4)cc3)NC(=O)[C@H](C(C)C)NC2=O)c1 (stereo partly drawn) [Compound 3427] ({CH2CO}-[Thr(3ξ)]Y(Carboxymethyl)D[Phe(3-Me)]V[Bip]Y[Orn][dL][Dab][Cha]V[Thr(3ξ)]CN[Aun]-OH; thioether N-14),16.8
6,Cc1cccc(C[C@@H]2NC(=O)[C@H](CC(=O)O)NC(=O)[C@H](Cc3ccc(OCC(=O)O)cc3)NC(=O)[C@H](CN)NC(=O)CSC[C@@H](C(=O)N[C@@H](CCN)C(=O)NCCOCCOCC(=O)NCCCCCCCCCCC(=O)O)NC(=O)[C@H](CCCN)NC(=O)[C@H](Cc3ccc(O)cc3)NC(=O)[C@H](CC3CCCCC3)NC(=O)[C@H](CCN)NC(=O)[C@@H](CC(C)C)NC(=O)[C@H](CCCN)NC(=O)[C@H](Cc3ccc(O)cc3)NC(=O)[C@H](Cc3ccc(-c4ccccc4)cc3)NC(=O)[C@H](C(C)C)NC2=O)c1 [Compound 2578] ({CH2CO}-[Dap]Y(Carboxymethyl)D[Phe(3-Me)]V[Bip]Y[Orn][dL][Dab][Cha]Y[Orn]C[Dab][AEEA][Aun]-OH; thioether N-14),10.7
7,COC[C@@H]1NC(=O)CSC[C@@H](C(=O)N[C@@H](CCN)C(=O)NCCCCCCCCCCCCCCC(=O)O)NC(=O)[C@H](CO)NC(=O)[C@H](C(C)(C)O)NC(=O)[C@H](CC2CCCCC2)NC(=O)[C@H](CCN)NC(=O)[C@@H](CC(C)C)NC(=O)[C@H](CCCN)NC(=O)[C@H](Cc2ccc(C(=O)O)cc2)NC(=O)[C@H](Cc2ccc(-c3ccccc3)cc2)NC(=O)[C@H](Cc2ccc(C(=O)O)cc2)NC(=O)[C@H](Cc2cccc(C(F)(F)F)c2)NC(=O)[C@H](CC(=O)O)NC(=O)[C@H](Cc2ccc(OCC(=O)O)cc2)NC1=O [Compound 2908] ({CH2CO}-S(Me)Y(Carboxymethyl)D[Phe(3-CF3)][Phe(4-COOH)][Bip][Phe(4-COOH)][Orn][dL][Dab][Cha][Val(3-OH)]SC[Dab]-{NH(CH2)14COOH}; thioether N-14),541

# The next lines start with the values.
row,IC50 [nM],Compound
1,18.6,Cc1cccc(C[C@@H]2NC(=O)[C@H](CC(=O)O)NC(=O)[C@H](Cc3ccncc3)NC(=O)[C@H](Cc3ccc(OCC(=O)O)cc3)NC(=O)CSC[C@@H](C(=O)N[C@@H](CCN)C(=O)NCCCCCCCCCCC(=O)O)NC(=O)[C@H](CCCN)NC(=O)[C@H](C(C)C)NC(=O)[C@H](CC3CCCCC3)NC(=O)[C@H](CCN)NC(=O)[C@@H](CC(C)C)NC(=O)[C@H](CCCN)NC(=O)[C@H](Cc3ccc(O)cc3)NC(=O)[C@H](Cc3ccc(-c4ccccc4)cc3)NC(=O)[C@H](C(C)C)NC2=O)c1 [Compound 2710] ({CH2CO}-Y(Carboxymethyl)[4Pal]D[Phe(3-Me)]V[Bip]Y[Orn][dL][Dab][Cha]V[Orn]C[Dab][Aun]-OH; thioether N-14)
2,11.7,CC(C)C[C@H]1NC(=O)[C@H](CCCN)NC(=O)[C@H](C(C)C)NC(=O)[C@H](Cc2ccc(-c3ccccc3)cc2)NC(=O)[C@H](C(C)C)NC(=O)[C@H](Cc2c[nH]c3ccccc23)NC(=O)[C@H](CC(=O)O)NC(=O)[C@H](Cc2ccc(OCC(=O)O)cc2)NC(=O)[C@H](CCCNC(=N)N)NC(=O)CSC[C@@H](C(=O)NCC(=O)NCCOCCOCC(=O)N[C@@H](CCCN)C(=O)NCCCCCCCCCCC(=O)O)NC(=O)[C@H](CCN)NC(=O)[C@H](C(C)C)NC(=O)[C@H](CC2CCCCC2)NC(=O)[C@H](CCN)NC1=O [Compound 3241] ({CH2CO}-RY(Carboxymethyl)DWV[Bip]V[Orn][dL][Dab][Cha]V[Dab]CG[AEEA][Orn][Aun]-OH; thioether N-14)
3,7.3,Cc1cccc(C[C@@H]2NC(=O)[C@H](CC(=O)O)NC(=O)[C@H](Cc3ccc(OCC(=O)O)cc3)NC(=O)[C@H](CCN)NC(=O)CSC[C@@H](C(=O)N[C@@H](CCN)C(=O)NCCCCCCCCCCCC(=O)O)NC(=O)[C@H](CCCN)NC(=O)[C@H](C(C)(C)O)NC(=O)[C@H](CC3CCCCC3)NC(=O)[C@H](CCN)NC(=O)[C@@H](CC(C)C)NC(=O)[C@H](CCCN)NC(=O)[C@H](Cc3ccc(OCC(=O)O)cc3)NC(=O)[C@H](Cc3ccc(-c4ccccc4)cc3)NC(=O)[C@H](Cc3ccc(OCC(=O)O)cc3)NC2=O)c1 [Compound 3626] ({CH2CO}-[Dab]Y(Carboxymethyl)D[Phe(3-Me)]Y(Carboxymethyl)[Bip]Y(Carboxymethyl)[Orn][dL][Dab][Cha][Val(3-OH)][Orn]C[Dab][12Ado]-OH; thioether N-14)
4,17,Cc1cccc(C[C@@H]2NC(=O)[C@H](CC(=O)O)NC(=O)[C@H](Cc3ccc(OCC(=O)O)cc3)NC(=O)[C@H](C(C)O)NC(=O)CSC[C@@H](C(=O)N[C@H](CC(N)=O)C(=O)NCCCCCCCCCCC(=O)O)NC(=O)[C@H](C(C)O)NC(=O)[C@H](C(C)C)NC(=O)[C@H](CC3CCCCC3)NC(=O)[C@H](CCN)NC(=O)[C@@H](CC(C)C)NC(=O)[C@H](CCCN)NC(=O)[C@H](C(C)C)NC(=O)[C@H](Cc3ccc(-c4ccccc4)cc3)NC(=O)[C@H](C(C)C)NC2=O)c1 (stereo partly drawn) [Compound 3436] ({CH2CO}-[Thr(3ξ)]Y(Carboxymethyl)D[Phe(3-Me)]V[Bip]V[Orn][dL][Dab][Cha]V[Thr(3ξ)]C[dN][Aun]-OH; thioether N-14)
5,34.1,CC(C)C[C@H]1NC(=O)[C@H](CCCN)NC(=O)[C@H](C(C)C)NC(=O)[C@H](Cc2ccc(-c3ccccc3)cc2)NC(=O)[C@H](C(C)C)NC(=O)[C@H](Cc2c[nH]c3ccccc23)NC(=O)[C@H](CC(=O)O)NC(=O)[C@H](Cc2ccc(OCC(=O)O)cc2)NC(=O)[C@H](CN)NC(=O)CSC[C@@H](C(=O)NCCOCCOCC(=O)N[C@@H](CCCCN)C(=O)NCCCCCCCCCCC(=O)O)NC(=O)[C@H](CCCCN)NC(=O)[C@H](C(C)C)NC(=O)[C@H](CC2CCCCC2)NC(=O)[C@H](CCN)NC1=O [Compound 2595] ({CH2CO}-[Dap]Y(Carboxymethyl)DWV[Bip]V[Orn][dL][Dab][Cha]VKC[AEEA]K[Aun]-OH; thioether N-14)
6,34.1,Cc1cccc(C[C@@H]2NC(=O)[C@H](CC(=O)O)NC(=O)[C@H](Cc3ccc(CCC(=O)O)cc3)NC(=O)[C@H](CN)NC(=O)CSC[C@@H](C(=O)N[C@@H](CCN)C(=O)N[C@@H](CO)C(=O)NCCCCCCCCCCC(=O)O)NC(=O)[C@H]([C@@H](C)O)NC(=O)[C@H](C(C)C)NC(=O)[C@H](CC3CCCCC3)NC(=O)[C@H](CCN)NC(=O)[C@@H](CC(C)C)NC(=O)[C@H](CCCN)NC(=O)[C@H](CCCNC(N)=O)NC(=O)[C@H](Cc3ccc(-c4ccccc4)cc3)NC(=O)[C@H](C(C)C)NC2=O)c1 [Compound 2811] ({CH2CO}-[Dap][Phe(4-CH2CH2COOH)]D[Phe(3-Me)]V[Bip][Cit][Orn][dL][Dab][Cha]VTC[Dab]S[Aun]-OH; thioether N-14)
